Results: patent publication US20020031782A1, “Mycobacterium tuberculosis CYP51 high resolution structure, polypeptides and nucleic acids, and therapeutic and screening methods relating to same” (priority 1999, published 2002)
Where two headings read alike, the source gives them in different places.

Legend:
[1] = target: T1, MT P45014DM (Mycobacterium tuberculosis, UniProt P9WPP9); test: biochemical; type: binding; set-up: DNA segments encoding full length proteins preferably have a coding length on the order of about 1353 nucleotides; made in house; host or cells: E. coli HMS174, vector pet17b; settings: for Kd: type I substrate-induced difference spectrum, 10 μM MT P45014DM, read-out: Ks value (binding constant), substrate
T1 sequence (P9WPP9 1-451): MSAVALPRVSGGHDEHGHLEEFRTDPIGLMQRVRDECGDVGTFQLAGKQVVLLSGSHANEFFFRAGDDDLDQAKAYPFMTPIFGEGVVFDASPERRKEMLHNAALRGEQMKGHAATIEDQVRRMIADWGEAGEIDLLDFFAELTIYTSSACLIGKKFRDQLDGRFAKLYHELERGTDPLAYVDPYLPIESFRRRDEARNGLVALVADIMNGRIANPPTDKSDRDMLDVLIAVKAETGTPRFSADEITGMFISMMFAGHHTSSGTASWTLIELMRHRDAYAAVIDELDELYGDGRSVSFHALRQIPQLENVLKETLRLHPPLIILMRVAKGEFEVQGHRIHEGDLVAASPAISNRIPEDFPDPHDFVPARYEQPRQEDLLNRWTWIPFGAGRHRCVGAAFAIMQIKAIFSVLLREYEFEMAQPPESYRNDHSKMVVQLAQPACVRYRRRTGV

[2] = target: T1, MT P45014DM; test: Reconstituted catalytic activity: sterol 14α-demethylation by MT P45014DM; type: biochemical; set-up: DNA segments encoding full length proteins preferably have a coding length on the order of about 1353 nucleotides; made in house; host or cells: E. coli HMS174, vector pet17b
[3] = target: T1, MT P45014DM; test: biochemical; type: binding; set-up: DNA segments encoding full length proteins preferably have a coding length on the order of about 1353 nucleotides; made in house; host or cells: E. coli HMS174, vector pet17b
[4] = target: maize microsomes; settings: Salmon et al. 1992; read-out: binding constant estimated for maize microsomes; cited from earlier work
[5] = test system: MT H37RA; test: Effect of azole inhibitors on growth of MT; type: cell-based, Mycobacterium tuberculosis
Protocol: The characterization of the CYP51 enzyme of the present invention in MT leads to the analysis of the function of this enzyme in the disease tuberculosis and of whether this enzyme represents a new drug target for the treatment of tuberculosis. Particularly, the effects of three azole inhibitors on the growth of MT H37RA, an alternated strain of MTH37R which is the pathogenic strain whose genomic sequence was determined by Cole et al., (1998) Nature […]:537-544 (bacterial strains provided by Dr. Dean Crick at Colorado State University) were examined.
As contemplated by applicants in accordance with the present invention, it was observed that ketoconazole has a profound effect on the growth of MT, stopping growth at about a 25 μM concentration. […] The targeting of ketoconazole to P45014DM in MT also leads to the identification of additional specific azole inhibitors which have far greater specificity for the MT CYP45014DM enzyme as compared to the human CYP45014DM enzyme. Such inhibitors therefore will have fewer side effects than less specific inhibitors. Thus, as described above, a method of screening for highly specific inhibitors of MT CYP45014DM in accordance with the screening methods described herein above comprises another aspect of the present invention.

[6] = target: T1, MT P45014DM; settings: compared to 100% determined by sodium hydrosulfite
[7] = target: T2, cholesterol side chain cleavage P450 (SCC) (Bos taurus, UniProt P00189); test: CO-based reduction of cholesterol side chain cleavage P450 by electron donor (control); type: biochemical, bovine; settings: compared to 100% determined by sodium hydrosulfite
T2 sequence (P00189 40-520): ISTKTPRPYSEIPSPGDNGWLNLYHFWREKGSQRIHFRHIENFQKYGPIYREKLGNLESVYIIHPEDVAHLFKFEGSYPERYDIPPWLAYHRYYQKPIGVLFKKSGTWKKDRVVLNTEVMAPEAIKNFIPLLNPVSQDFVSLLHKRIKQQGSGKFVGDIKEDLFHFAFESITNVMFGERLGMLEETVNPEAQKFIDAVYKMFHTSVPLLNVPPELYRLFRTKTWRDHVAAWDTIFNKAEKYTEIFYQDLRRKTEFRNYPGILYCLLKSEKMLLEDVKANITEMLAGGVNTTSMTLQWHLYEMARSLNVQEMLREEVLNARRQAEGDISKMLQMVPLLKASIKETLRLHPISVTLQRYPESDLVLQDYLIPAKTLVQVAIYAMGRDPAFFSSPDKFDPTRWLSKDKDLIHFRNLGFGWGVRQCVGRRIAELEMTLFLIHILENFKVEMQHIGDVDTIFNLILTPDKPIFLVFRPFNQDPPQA

[8] = target: T3, bovine 17α-hydroxylase P450 (bC17) (Bos taurus, UniProt P05185); test: CO-based reduction of 17α-hydroxylase P450 by electron donors (control); type: biochemical; settings: compared to 100% determined by sodium hydrosulfite
T3 sequence (P05185 1-509): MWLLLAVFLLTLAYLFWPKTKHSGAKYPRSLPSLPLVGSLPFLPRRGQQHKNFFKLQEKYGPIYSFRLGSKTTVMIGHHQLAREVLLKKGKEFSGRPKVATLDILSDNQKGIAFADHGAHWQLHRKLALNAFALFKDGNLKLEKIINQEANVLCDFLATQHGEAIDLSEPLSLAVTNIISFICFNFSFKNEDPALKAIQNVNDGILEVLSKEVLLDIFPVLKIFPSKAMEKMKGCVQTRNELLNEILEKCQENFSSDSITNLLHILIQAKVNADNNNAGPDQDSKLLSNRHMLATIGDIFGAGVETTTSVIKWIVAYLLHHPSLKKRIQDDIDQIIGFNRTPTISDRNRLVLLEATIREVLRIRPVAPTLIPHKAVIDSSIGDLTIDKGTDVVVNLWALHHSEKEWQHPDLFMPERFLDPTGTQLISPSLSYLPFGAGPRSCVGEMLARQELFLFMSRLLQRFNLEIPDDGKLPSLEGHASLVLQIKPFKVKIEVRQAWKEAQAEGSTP

With `C=C(CC[C@@H](C)[C@H]1CC[C@@]2(C)C3=C(CC[C@]12C)[C@@]1(C)CC[C@H](O)C(C)(C)[C@@H]1CC3)C(C)C` [24-methylene-dihydrolanosterol] the “sterol binding to the enzyme (yes/no)” value [1] was “did not bind”.

For `CC(C)CCC[C@@H](C)[C@H]1CC[C@@]2(C)C3=C(CC[C@]12C)[C@@]1(C)CC[C@H](O)C(C)(C)[C@@H]1CC3` [DHL, 24,25-dihydrolanosterol], the “Total product recovered from the quenched reaction mixtures” value (“Total product recovered” for short) [2] was 20%, the “sterol binding to the enzyme (yes/no)” value [1] was “binds” and the Kd [1] was about 1000 nM.

In the case of `CC(C)=CCC[C@@H](C)[C@H]1CC[C@@]2(C)[C@@H]3CC[C@H]4C(C)(C)[C@@H](O)CC[C@@]45C[C@@]35CC[C@]12C` [cycloartenol], the “sterol binding to the enzyme (yes/no)” value [1] is reported as “Neither parkeol, cycloartenol, nor zymosterol (FIG. 3A) were found to bind”.

For `CC(=O)N1CCN(c2ccc(OCC3COC(Cn4ccnc4)(c4ccc(Cl)cc4Cl)O3)cc2)CC1` (stereo not shown) [ketoconazole], the “inhibition of the 14α-demethylation of DHL” value [2] is listed as “inhibit”, the Kd [3] is listed as about 5 µM and the Kd [4] is listed as 10 µM. The “concentration stopping growth of MT” value [5] was about 25 µM.

For `CC(C)=CCC[C@@H](C)[C@H]1CC[C@@]2(C)C3=C(CC[C@]12C)[C@@]1(C)CC[C@H](O)C(C)(C)[C@@H]1CC3` [lanosterol], the “Total product recovered” value [2] was 1%, the “sterol binding to the enzyme (yes/no)” value [1] was “binds” and the Kd [1] was about 1000 nM.

In the case of `C=C(CC[C@@H](C)[C@H]1CC[C@@]2(C)C3=C(CC[C@]12C)[C@@]1(C)CC[C@H](O)[C@@H](C)[C@@H]1CC3)C(C)C` [obtusifoliol], the “Total product recovered” value [2] is reported as 98%, the “sterol binding to the enzyme (yes/no)” value [1] is reported as “binds” and the Kd [1] is reported as 350 ± 150 nM.

For `CC(C)=CCC[C@@H](C)[C@H]1CC[C@@]2(C)[C@@H]3CC[C@H]4C(C)(C)[C@@H](O)CC[C@]4(C)C3=CC[C@]12C` [parkeol], the “sterol binding to the enzyme (yes/no)” value [1] was “Neither parkeol, cycloartenol, nor zymosterol (FIG. 3A) were found to bind”.

For `CC(C)=CCC[C@@H](C)[C@H]1CC[C@H]2C3=C(CC[C@]12C)[C@@]1(C)CC[C@H](O)C[C@@H]1CC3` [zymosterol, 4,4,14-tridesmethyl lanosterol], the “sterol binding to the enzyme (yes/no)” value [1] was “Neither parkeol, cycloartenol, nor zymosterol (FIG. 3A) were found to bind”.

B1: Adx/Adr: bovine adrenodoxin/adrenodoxin reductase electron donor system (protein, UniProt P00257 59-186; P08165 33-492, looked up)
Adrenodoxin, mitochondrial: SSSEDKITVHFINRDGETLTTKGKIGDSLLDVVVQNNLDIDGFGACEGTLACSTCHLIFEQHIFEKLEAITDEENDMLDLAYGLTDRSRLGCQICLTKAMDNMTVRVPDAVSDARESIDMGMNSSKIE
NADPH:adrenodoxin …: STQEQTPQICVVGSGPAGFYTAQHLLKHHSRAHVDIYEKQLVPFGLVRFGVAPDHPEVKNVINTFTQTARSDRCAFYGNVEVGRDVTVQELQDAYHAVVLSYGAEDHQALDIPGEELPGVFSARAFVGWYNGLPENRELAPDLSCDTAVILGQGNVALDVARILLTPPDHLEKTDITEAALGALRQSRVKTVWIVGRRGPLQVAFTIKELREMIQLPGTRPMLDPADFLGLQDRIKEAARPRKRLMELLLRTATEKPGVEEAARRASASRAWGLRFFRSPQQVLPSPDGRRAAGIRLAVTRLEGIGEATRAVPTGDVEDLPCGLVLSSIGYKSRPIDPSVPFDPKLGVVPNMEGRVVDVPGLYCSGWVKRGPTGVITTTMTDSFLTGQILLQDLKAGHLPSGPRPGSAFIKALLDSRGVWPVSFSDWEKLDAEEVSRGQASGKPREKLLDPQEMLRLLGH
modifications: two-protein electron donor system
In the case of B1, the “reduction of MT P45014DM (reduced-CO spectrum)” value [6] is reported as “n.r” and the “reduction of SCC (reduced-CO spectrum)” value [7] is reported as 80%.

B2: rat P450 reductase: rat microsomal NADPH cytochrome P450 reductase (protein, UniProt P00388 2-678, looked up)
NADPH--cytochrome P450 …: GDSHEDTSATMPEAVAEEVSLFSTTDMVLFSLIVGVLTYWFIFRKKKEEIPEFSKIQTTAPPVKESSFVEKMKKTGRNIIVFYGSQTGTAEEFANRLSKDAHRYGMRGMSADPEEYDLADLSSLPEIDKSLVVFCMATYGEGDPTDNAQDFYDWLQETDVDLTGVKFAVFGLGNKTYEHFNAMGKYVDQRLEQLGAQRIFELGLGDDDGNLEEDFITWREQFWPAVCEFFGVEATGEESSIRQYELVVHEDMDVAKVYTGEMGRLKSYENQKPPFDAKNPFLAAVTANRKLNQGTERHLMHLELDISDSKIRYESGDHVAVYPANDSALVNQIGEILGADLDVIMSLNNLDEESNKKHPFPCPTTYRTALTYYLDITNPPRTNVLYELAQYASEPSEQEHLHKMASSSGEGKELYLSWVVEARRHILAILQDYPSLRPPIDHLCELLPRLQARYYSIASSSKVHPNSVHICAVAVEYEAKSGRVNKGVATSWLRAKEPAGENGGRALVPMFVRKSQFRLPFKSTTPVIMVGPGTGIAPFMGFIQERAWLREQGKEVGETLLYYGCRRSDEDYLYREELARFHKDGALTQLNVAFSREQAHKVYVQHLLKRDREHLWKLIHEGGAHIYVCGDARNMAKDVQNTFYDIVAEFGPMEHTQAVDYVKKLMTKGRYSLDVWS
In the case of B2, the “reduction of MT P45014DM (reduced-CO spectrum)” value [6] is reported as “n.r” and the “reduction of bC17 (reduced-CO spectrum)” value [8] is reported as 73%.

B3: Fld/Fdr: E. coli flavodoxin/flavodoxin reductase two-component electron donor system (protein, UniProt P61949 2-176; P28861 2-248, looked up)
Flavodoxin 1: AITGIFFGSDTGNTENIAKMIQKQLGKDVADVHDIAKSSKEDLEAYDILLLGIPTWYYGEAQCDWDDFFPTLEEIDFNGKLVALFGCGDQEDYAEYFCDALGTIRDIIEPRGATIVGHWPTAGYHFEASKGLADDDHFVGLAIDEDRQPELTAERVEKWVKQISEELHLDEILNA
Flavodoxin/ferredoxin--NADP …: ADWVTGKVTKVQNWTDALFSLTVHAPVLPFTAGQFTKLGLEIDGERVQRAYSYVNSPDNPDLEFYLVTVPDGKLSPRLAALKPGDEVQVVSEAAGFFVLDEVPHCETLWMLATGTAIGPYLSILQLGKDLDRFKNLVLVHAARYAADLSYLPLMQELEKRYEGKLRIQTVVSRETAAGSLTGRIPALIESGELESTIGLPMNKETSHVMLCGNPQMVRDTQQLLKETRQMTKHLRRRPGHMTAEHYW
With B3 the “reduction of bC17 (reduced-CO spectrum)” value [8] was 77%.
